Laboratory results as given in ChEMBL document CHEMBL2057069, “Benzoxazole and benzothiazole amides as novel pharmacokinetic enhancers of HIV protease inhibitors” (Bioorg Med Chem Lett, 2012).

Tests used:
[1] = system: Human immunodeficiency virus 1; test: Antiviral activity against wild type HIV1 3B infected in human MT4 LTR-EGFP cells by EGFP reporter gene assay; format: functional, organism-based; conditions: Human immunodeficiency virus 1, 3B
[2] = biological target: Cytochrome P450 3A4 (Homo sapiens, UniProt P08684); test: Inhibition of CYP3A4 in human liver microsomes using midazolam as substrate after 10 mins by LC/MS/MS analysis
Cytochrome P450 3A4, sequence (P08684 whole entry): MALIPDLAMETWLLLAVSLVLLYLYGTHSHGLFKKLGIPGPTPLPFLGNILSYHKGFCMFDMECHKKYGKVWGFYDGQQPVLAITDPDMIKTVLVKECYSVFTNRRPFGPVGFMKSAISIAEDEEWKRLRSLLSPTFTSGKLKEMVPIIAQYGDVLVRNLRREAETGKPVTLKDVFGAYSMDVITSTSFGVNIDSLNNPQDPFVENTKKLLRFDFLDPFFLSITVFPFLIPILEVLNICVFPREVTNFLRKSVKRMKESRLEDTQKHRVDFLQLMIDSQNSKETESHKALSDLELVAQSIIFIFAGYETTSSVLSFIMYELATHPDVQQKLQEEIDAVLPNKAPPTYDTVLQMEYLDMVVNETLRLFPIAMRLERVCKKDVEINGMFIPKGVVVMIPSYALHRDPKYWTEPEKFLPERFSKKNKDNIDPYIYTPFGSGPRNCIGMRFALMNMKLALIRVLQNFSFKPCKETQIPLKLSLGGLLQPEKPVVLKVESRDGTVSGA

Row | Compound | EC50 [1] [µM] | IC50 [2] [µM]
1 | CCN(C)c1nc2ccc(C(=O)N(CC(C)C)C[C@H](O)[C@H](Cc3ccccc3)NC(=O)OCc3cncs3)cc2o1 | 45 | –
2 | Cc1nc2ccc(C(=O)N(CC(C)C)C[C@@H](O)[C@H](Cc3ccccc3)NC(=O)OCc3cncs3)cc2o1 | > 100 | 0.052
3 | CCNc1nc2ccc(C(=O)N(C[C@@H](O)[C@H](Cc3ccccc3)NC(=O)OCc3cncs3)CC(C)(C)O)cc2o1 | > 100 | –
4 | CCNc1nc2ccc(C(=O)N(CC(C)C)C[C@@H](O)[C@H](Cc3ccccc3)NC(=O)OCc3cncs3)cc2o1 | 85 | 0.028
5 | CCN(C[C@@H](O)[C@H](Cc1ccccc1)NC(=O)OCc1cncs1)C(=O)c1ccc2nc(N(C)CC)oc2c1 | > 100 | 0.079
6 | CCN(C)c1nc2ccc(C(=O)N(CCN3CCCC3)C[C@@H](O)[C@H](Cc3ccccc3)NC(=O)OCc3cncs3)cc2o1 | > 100 | 0.14
7 | CC(C)(O)CN(C[C@@H](O)[C@H](Cc1ccccc1)NC(=O)OCc1cncs1)C(=O)c1ccc2nc(N3CCCC3)oc2c1 | > 100 | –
8 | CC(C)CN(C[C@@H](O)[C@H](Cc1ccccc1)NC(=O)OCc1cncs1)C(=O)c1ccc2nc(NCCN(C)C)oc2c1 | > 100 | 0.2
9 | C#CCN(C)c1nc2ccc(C(=O)N(CC(C)C)C[C@@H](O)[C@H](Cc3ccccc3)NC(=O)OCc3cncs3)cc2o1 | 48 | 0.03
10 | CN(C[C@@H](O)[C@H](Cc1ccccc1)NC(=O)OCc1cncs1)C(=O)c1ccc2nc(N3CCCC3)oc2c1 | > 100 | 0.084
11 | CC(C)CN(C[C@@H](O)[C@H](Cc1ccccc1)NC(=O)OCc1cncs1)C(=O)c1ccc2nc(NCCCn3ccnc3)oc2c1 | 87 | –
12 | CCN(C)c1nc2ccc(C(=O)N(CCN(C)C)C[C@@H](O)[C@H](Cc3ccccc3)NC(=O)OCc3cncs3)cc2o1 | > 100 | –
13 | CC(C)CN(C[C@@H](O)[C@H](Cc1ccccc1)NC(=O)OCc1cncs1)C(=O)c1ccc2nc(N3CCOCC3)oc2c1 | > 100 | 0.038
14 | O=C(N[C@@H](Cc1ccccc1)[C@H](O)CN(CCN1CCCC1)C(=O)c1ccc2nc(N3CCCC3)oc2c1)OCc1cncs1 | 58 | 0.13
15 | CC(C)CN(C[C@H](O)[C@H](Cc1ccccc1)NC(=O)OCc1cncs1)C(=O)c1ccc2nc(N3CCCC3)oc2c1 | 45 | –
16 | CC(C)CN(C[C@@H](O)[C@H](Cc1ccccc1)NC(=O)OCc1cncs1)C(=O)c1ccc2ncoc2c1 | > 100 | 0.055
17 | CC(C)CN(C[C@@H](O)[C@H](Cc1ccccc1)NC(=O)OCc1cncs1)C(=O)c1ccc2nc(-c3ccncc3)oc2c1 | > 100 | 0.024
18 | CCN(C)c1nc2ccc(C(=O)N(CCN3CCOCC3)C[C@@H](O)[C@H](Cc3ccccc3)NC(=O)OCc3cncs3)cc2o1 | > 100 | 0.14
19 | CCN(C)c1nc2ccc(C(=O)N(CC3CCCCC3)C[C@@H](O)[C@H](Cc3ccccc3)NC(=O)OCc3cncs3)cc2o1 | 21 | 0.026
20 | CC(C)CN(C[C@@H](O)[C@H](Cc1ccccc1)NC(=O)OCc1cncs1)C(=O)c1ccc2nc(N3CCCC3)oc2c1 | > 100 | 0.033
21 | C#CCN(C[C@@H](O)[C@H](Cc1ccccc1)NC(=O)OCc1cncs1)C(=O)c1ccc2nc(N(C)CC)oc2c1 | 60 | –
22 | CN(C)CCN(C[C@@H](O)[C@H](Cc1ccccc1)NC(=O)OCc1cncs1)C(=O)c1ccc2nc(N3CCCC3)oc2c1 | > 100 | 0.23

Row | Compound | EC50 [1] [µM] | IC50 [2] [µM]
23 | O=C(N[C@@H](Cc1ccccc1)[C@H](O)CN(CC1CCC(F)(F)CC1)C(=O)c1ccc2nc(N3CCCC3)oc2c1)OCc1cncs1 | 30 | 0.03
24 | CCN(C)c1nc2ccc(C(=O)N(CC(C)C)C[C@@H](O)[C@H](Cc3ccc(F)cc3)NC(=O)OCc3cncs3)cc2o1 | 47 | 0.023
25 | CCN(C)c1nc2ccc(C(=O)N(CC(C)C)C[C@@H](O)[C@H](Cc3ccccc3)NC(=O)OCc3ccncc3)cc2o1 | 49 | 0.2
26 | CC(C)CN(C[C@@H](O)[C@H](Cc1ccccc1)NC(=O)OCc1cncs1)C(=O)c1ccc2nc(C(C)C)oc2c1 | 45 | 0.037
27 | CC(C)(C)CN(C[C@@H](O)[C@H](Cc1ccccc1)NC(=O)OCc1cncs1)C(=O)c1ccc2nc(N3CCCC3)oc2c1 | 30 | 0.027
28 | CC(C)CN(C[C@@H](O)[C@H](Cc1ccccc1)NC(=O)OCc1cncs1)C(=O)c1ccc2nc(NCCCN(C)C)oc2c1 | 60 | 0.2
29 | CC(C)CN(C[C@@H](O)[C@H](Cc1ccccc1)NC(=O)OCc1cncs1)C(=O)c1ccc2nc(N(C)CCN(C)C)oc2c1 | 63 | –
30 | CCN(C)c1nc2ccc(C(=O)N(CC(C)C)C[C@@H](O)[C@H](Cc3ccccc3)NC(=O)OCc3cccnc3)cc2o1 | 48 | 0.022
31 | CCc1nc2ccc(C(=O)N(CC(C)C)C[C@@H](O)[C@H](Cc3ccccc3)NC(=O)OCc3cncs3)cc2o1 | 87 | 0.039
32 | O=C(N[C@@H](Cc1ccccc1)[C@H](O)CN(CCN1CCOCC1)C(=O)c1ccc2nc(N3CCCC3)oc2c1)OCc1cncs1 | > 100 | 0.12
33 | CC(C)CN(C[C@@H](O)[C@H](Cc1ccccc1)NC(=O)OCc1cncs1)C(=O)c1ccc2nc(N3CCCCC3)oc2c1 | 36 | –
34 | CCN(C)c1nc2ccc(C(=O)N(C[C@@H](O)[C@H](Cc3ccccc3)NC(=O)OCc3cncs3)CC(C)(C)C)cc2o1 | 48 | 0.037
35 | CC(C)CN(C[C@@H](O)[C@H](Cc1ccccc1)NC(=O)OCc1cncs1)C(=O)c1ccc2nc(N)oc2c1 | > 100 | 0.042
36 | CC(C)CN(C[C@@H](O)[C@H](Cc1cccnc1)NC(=O)OCc1cncs1)C(=O)c1ccc2ncsc2c1 | > 100 | 0.09
37 | CCN(C)c1nc2ccc(C(=O)N(CC(C)C)C[C@@H](O)[C@H](Cc3ccccc3)NC(=O)OCc3ccc4c(c3)OCO4)cc2o1 | 16 | –
38 | O=C(N[C@@H](Cc1ccccc1)[C@H](O)CN(CC1CCCCC1)C(=O)c1ccc2nc(N3CCCC3)oc2c1)OCc1cncs1 | 28 | 0.026
39 | CC(C)CN(C[C@@H](O)[C@H](Cc1ccccc1)NC(=O)OCc1cncs1)C(=O)c1ccc2nc(N(C)C)oc2c1 | 47 | –
40 | CC(C)CN(C[C@@H](O)[C@H](Cc1ccccc1)NC(=O)OCc1cncs1)C(=O)c1ccc2nc(NC3CCN(C)CC3)oc2c1 | > 100 | 2.7
41 | CCN(C)c1nc2ccc(C(=O)N(CC(C)C)CC(O)[C@H](Cc3cccnc3)NC(=O)OCc3cncs3)cc2o1 (single isomer, unassigned) | > 100 | 0.069
42 | CCN(C[C@@H](O)[C@H](Cc1ccccc1)NC(=O)OCc1cncs1)C(=O)c1ccc2nc(N3CCCC3)oc2c1 | 69 | 0.06
43 | CC(C)c1nc(CN(C)C(=O)N[C@H](C(=O)N[C@@H](Cc2ccccc2)C[C@H](O)[C@H](Cc2ccccc2)NC(=O)OCc2cncs2)C(C)C)cs1 [RITONAVIR] | 0.0015 | –
44 | CC(C)CN(C[C@@H](O)[C@H](Cc1ccccc1)NC(=O)OCc1cncs1)C(=O)c1ccc2nc(N3CCN(C)CC3)oc2c1 | > 100 | 0.092
